# Test results: patent US11466044B2 (WAYNE STATE UNIVERSITY, priority 2017, dated 2022)
# “Also recorded” adds a separate entry of the source.
# Experiments:
# MRSA = test: MIC by broth microdilution, MRSA isolates; type: cell-based
# E coli wild type = test: MIC by broth microdilution, wild type E coli; type: cell-based; conditions: for MIC AG001 E. coli WT: clinical isolate AG001, WT
# P aeruginosa = test: MIC by broth microdilution, P aeruginosa isolates; type: cell-based, Pseudomonas aeruginosa
# [1] = test system: E coli carrying specific resistance determinants; test: MIC by broth microdilution, E coli carrying specific resistance determinants; type: cell-based
# [2] = test system: A1555G mutant mitochondrial ribosome (human chimeric); test: in-vitro translation assay, human chimeric ribosomes, A1555G mutant mitochondrial decoding site; type: biochemical; conditions: for IC50: human mitochondrial decoding site with A1555G point mutation, read-out: IC50 Mitoch. A1555G
# Text: (§1) The antiribosomal activity of these compounds was investigated with cell-free translation assays using both wild type bacterial ribosomes and hybrid ribosomes carrying eukaryotic decoding A sites enabling the prediction of selectivity.
# [3] = test system: cytosolic ribosome (human chimeric); type: biochemical; conditions: for IC50: ribosomes with a human cytosolic decoding site, read-out: IC50 Cytosolic
# Text: as §1
# [4] = test system: mitochondrial ribosome (human chimeric); type: biochemical; conditions: for IC50: ribosomes with a human mitochondrial decoding site, read-out: IC50 Mitoch.
# Text: as §1
# [5] = test system: Klebsiella pneumonia AG215; test: MIC by broth microdilution, Klebsiella pneumonia; type: cell-based; conditions: strain AG215 Klebsiella pneumonia
# [6] = test system: Acinetobacter baumannii pittii AG225; test: MIC by broth microdilution, Acinetobacter baumannii; type: cell-based; conditions: strain AG225 Acinetobacter baumannii pittii
# M. smegmatis SZ380 = test: MIC by broth microdilution, M. smegmatis
# [7] = test system: wild type bacterial ribosomes; test: in-vitro translation assay, bacterial ribosomes; type: biochemical; conditions: Mycobacterium smegmatis ribosomes; read-out: IC50 Bacterial
# Text: as §1
compound,measurement,setting,value
CC(=O)NC1C(OC2C(N)CC(N)C(O)C2OC2OC(CO)C(OC3OC(CN)C(O)C(O)C3N)C2O)OC(CN)C(O)C1O (centres unmarked) [Compound 183],MIC MRSA AG038,"MRSA; clinical isolate AG038, Table 1 (Example 3)",>32 µg/mL
same,MIC MRSA AG039,"MRSA; clinical isolate AG039, Table 1 (Example 3)",>32 µg/mL
same,MIC MRSA AG042,"MRSA; clinical isolate AG042, Table 1 (Example 3)",>32 µg/mL
same,MIC E coli AG006 Wild type,"E coli wild type; AG006 Wild type, Table 2 (Example 3)",64 µg/mL
same,MIC E coli AG104 Wild type,"E coli wild type; AG104 Wild type, Table 2 (Example 3)",128 µg/mL
same,"antibacterial activity, in words","E coli wild type; MRSA and E coli, compared with the parent compound",very substantial loss of activity; also recorded: very significantly reduced activity
same,MIC E. coli WT,"E coli wild type; WT, Table 5 (Example 3)",128 µg/mL
same,MIC E coli AG001,"E coli wild type; clinical isolate AG001, Table 1 (Example 3)",>32 µg/mL
same,MIC E coli AG003,"E coli wild type; clinical isolate AG003, Table 1 (Example 3)",>32 µg/mL
same,MIC E coli AG055,"E coli wild type; clinical isolate AG055, Table 1 (Example 3)",>32 µg/mL
same,MIC AG212 E. coli,E coli wild type; strain AG212 E. coli (ATCC25922),>32 µg/mL
same,MIC AG220 P. aerugin,P aeruginosa; strain AG220 Pseudomonas aeruginosa ATCC27853,>32 µg/mL
same,MIC E. coli AG106 AAC(2′)-Ia,"[1]; AG106 AAC(2′)-Ia, Table 5 (Example 3)",128 µg/mL
same,MIC E coli AG106 AAC(2′),"[1]; AG106 AAC(2′), Table 2 (Example 3)",128 µg/mL
same,MIC E. coli pGB2armA armA,"[1]; pGB2armA armA, Table 5 (Example 3)",128-256 μg/ml
same,Selectivity for Binding to the Bacterial Ribosome over the Mutant Mitochondrial Ribosome,[2]; Table 3 (Example 3),5.2
same,Selectivity for Binding to the Bacterial Ribosome over the Cytosolic Ribosome,[3]; Table 3 (Example 3),28
same,Selectivity for Binding to the Bacterial Ribosome over the Mitochondrial Ribosome,[4]; Table 3 (Example 3),18
same,MIC AG215 K. pneumon,[5],>32 µg/mL
same,MIC AG225 A. baumannii,[6],>32 µg/mL
same,MIC M. smegmatis SZ380 WT,"M. smegmatis SZ380; SZ380 WT, Table 5 (Example 3)",8 µg/mL
same,MIC SZ380 M. smegmatis,M. smegmatis SZ380; strain SZ380 Mycobacterium smegmatis,8 µg/mL
NCC1OC(OC2C(CO)OC(OC3C(O)C(N)CC(N)C3OC3OC4C(O)COC4C(O)C3N)C2O)C(N)C(O)C1O (centres unmarked) [DC204],MIC AG038 MRSA,MRSA; clinical isolate AG038,8 µg/mL
same,MIC AG001 E. coli WT,E coli wild type,16 µg/mL
same,IC50,[7],0.2 µM
same,IC50,[2],117 µM
same,IC50,[3],276 µM
same,IC50,[4],131 µM
NCC1OC(OC2C(CO)OC(OC3C(O)C(N)CC(N)C3OC3OC4C(O)CCOC4C(O)C3N)C2O)C(N)C(O)C1O (centres unmarked) [DC210],MIC AG038 MRSA,MRSA; clinical isolate AG038,4 µg/mL
same,MIC pH430 WT,"E coli wild type; E. coli strain pH430, WT",2-4 μg/ml
same,MIC AG001 E. coli WT,E coli wild type,4 µg/mL
same,MIC AG031 P. aer. APH(3′)-II,"P aeruginosa; clinical isolate AG031, APH(3′)-II",64 µg/mL
same,"MIC AG036 ANT(4′,4′′)","[1]; E. coli strain AG036, ANT(4′,4′′)",2 µg/mL
same,MIC AG037 APH(3′)-III,"[1]; E. coli strain AG037, APH(3′)-III",>128 µg/mL
same,MIC pH421 APH(3)-I,"[1]; E. coli strain pH421, APH(3)-I",>128 μg/ml
same,MIC pH422 APH(3′)-II,"[1]; E. coli strain pH422, APH(3′)-II",32 μg/ml
same,MIC pH423 APH(3′)-VI,"[1]; E. coli strain pH423, APH(3′)-VI",4 μg/ml
same,IC50,[7],0.04 µM
same,IC50,[2],44 µM
same,IC50,[3],50 µM
same,IC50,[4],329 µM
